# From article PMC6179045, “Design, synthesis and biological evaluation of tricyclic pyrazolo[1,5-c][1,3]benzoxazin-5(5H)-one scaffolds as selective BuChE inhibitors” (Journal of Enzyme Inhibition and Medicinal Chemistry, 2018)
# Like-named read-outs stand apart in the source and are kept apart here.
# Key:
# [1] = molecular target: T1, AChE from electric eel (EeAChE) (Electrophorus electricus, UniProt O42275); experiment: AChE activity assay (modified Ellman's method); type: biochemical; settings: for IC50: mean ± SEM, n = 3
# T1 construct: AChE from electric eel (C3389-500UN; Sigma); purchased Sigma C3389-500UN
# Description: (§1) Enzymatic activity assays were performed on AChE from electric eel (C3389-500UN; Sigma) and BuChE from equine serum (C4290-1KU; Sigma), according to Ellman’s method with light modification. The experiment was performed in 48-well plates in a final volume of 500 µl. Each well contained 0.036 U/ml of EeAChE or eqBuChE, and 0.1 M pH = 8 phosphate buffer. They were incubated for 20 min at different concentrations of test compound at 37 °C. […] The DTNB produced the yellow anion 5-thio-2-nitrobenzoic acid along with the enzymatic degradation of acetylthiocholine or butyrylthiocholine. The absorbance of each assay was measured at 410 nm after 20 min in a Biotek Synergy HTX Multi-Mode reader. The IC50 values were calculated graphically from inhibition curves (log inhibitor concentration vs percent of inhibition). A control experiment was performed under the same conditions without inhibitor and the blank contained buffer, DMSO, DTNB and substrate.
# [2] = molecular target: T2, BuChE from equine serum (eqBuChE) (Equus caballus, UniProt P81908); experiment: BuChE activity assay (modified Ellman's method); type: biochemical, equine (horse); settings: for IC50: mean ± SEM, n = 3; for inhibition at 20 µM / inhibition % at 20 µM BuChE: 20 µM compound
# T2 construct: BuChE from equine serum (C4290-1KU; Sigma); purchased Sigma C4290-1KU; host or cells: equine serum
# Description: as §1
# [3] = Cytotoxicity MTT assay in PC12 cells; type: cell-based; settings: rat, 1-50 µM, read-out: relative cell viability (cytotoxicity)
# Description: PC12 cells were used to evaluate cell cytotoxicity by methyl thiazolyl tetrazolium (MTT) assay. PC12 cells were cultured in DMEM containing 10% fetal bovine serum, 100 µg/ml streptomycin and 100 units/ml penicillin at 37 °C in a 5% CO2 humidified atmosphere, and inoculated at 1 × 10^4 cells per well in 96-well plate. After cultured for 24 h, the cells were treated with different concentration of compounds in DMEM for 24 h. Then 20 µl of 0.5 mg/ml MTT reagent was added into the cells and incubated for 4 h. After 4 h, cell culture was removed and then 150 µl DMSO was added to dissolve the formazan. The optical density was measured at 570 nm (OD570). Cell viability was calculated from three independent experiments. OD570 of formazan in blank group was set as 100% of viability.
# Blank: cultured with fresh medium only.
# eqBuChE = molecular target: T3, eqBuChE (Equus caballus, UniProt P81908); experiment: Kinetic study of eqBuChE inhibition (Lineweaver-Burk plots); type: biochemical, equine (horse); settings: for type of BuChE inhibition: Lineweaver-Burk plots; for Ki: Lineweaver-Burk secondary plots, inhibitor 5, 10 and 20 µM, read-out: dissociation constant Ki against BuChE
# T3 construct: BuChE from equine serum (C4290-1KU; Sigma); purchased Sigma C4290-1KU; host or cells: equine serum
# Description: . The kinetic type of enzyme inhibition was obtained through the modified Ellman’s method and Lineweaver–Burk secondary plots. Apparent inhibition constants and kinetic parameters were calculated within the “Enzyme kinetics” module of Prism 5.
# The kinetic studies were carried out at three fixed inhibitor concentrations (5, 10 and 20 µM).
# [4] = Log P assessment (shake flask method, octanol/PBS); type: physicochemical; settings: octanol/PBS pH 7.4, shake flask, 37 °C
# Description: Log P, defined as the logarithm of octanol–water partition coefficient, is an important parameter to evaluate lipophilicity of compounds[45]. It can be calculated by determining the concentration of compound in octanol phase and water phase until the partition equilibrium was completed. In this work, log P of title compounds was measured by the shake flask method with slight modification. PBS (pH = 7.4) was used as the water. Both the octanol and the aqueous phase were saturated with each other before use. The assay mixture containing test compounds was shaken at 37 °C. After 24 h, the mixture was centrifuged at 4,000 rpm for 30 min, followed by the measurement with UV spectrophotometer. Experiments were conducted in triplicate and log p values were calculated.
# [5] = test system: differentiated PC12 cells; experiment: Neuroprotective effect against H2O2-induced damage in differentiated PC12 cells; type: cell-based; settings: Rattus norvegicus, PC-12, 25 µM compound 3 h before H2O2 (300 µM), 24 h, MTT, p < .05 vs. H2O2 alone, read-out: cell viability (neuroprotective activity)
# Description: The differentiated PC12 cells and oxidative agent H2O2 were used as in vitro model to assess neuronal differentiation and neurobiochemical and neurobiological properties[39]^,[44]. Differentiated PC12 cells were incubated with different concentrations of compounds 6a and 6g for 3 h before treatment with H2O2 (300 µM). Cell viability was measured after 24 h using MTT method. Briefly, 20 µL of 0.5 mg/ml MTT reagent was added into the cells and incubated for 4 h. After 4 h, cell culture was removed and then 150 µl DMSO was added to dissolve the formazan. OD570 value was measured at 570 nm on the Biotek Synergy HTX Multi-Mode reader. Results were adjusted by OD570 value in the blank.
# . The differentiated PC12 cells were pretreated with three concentrations (10, 25 and 50 µM) for 3 h, before treatment with H2O2 (300 µM), and cell viability was measured after 24 h using MTT method. […]. Neuroprotective activity of compounds 6a and 6g […] was evaluated by subjecting PC12 cells to H2O2-induced damage. […]
# [6] = AChE from electric eel, 20 µM compound, read-out: inhibition at 20 µM AChE
# [7] = BuChE from horse serum, read-out: inhibition % at 20 µM BuChE
# [8] = AChE from electric eel, 20 µM compound
# [9] = AChE from electric eel, 20 µM compound, read-out: inhibition % at 20 µM AChE
# [10] = BuChE from horse serum, read-out: inhibition at 20 µM BuChE
# T1 sequence (O42275 24-633): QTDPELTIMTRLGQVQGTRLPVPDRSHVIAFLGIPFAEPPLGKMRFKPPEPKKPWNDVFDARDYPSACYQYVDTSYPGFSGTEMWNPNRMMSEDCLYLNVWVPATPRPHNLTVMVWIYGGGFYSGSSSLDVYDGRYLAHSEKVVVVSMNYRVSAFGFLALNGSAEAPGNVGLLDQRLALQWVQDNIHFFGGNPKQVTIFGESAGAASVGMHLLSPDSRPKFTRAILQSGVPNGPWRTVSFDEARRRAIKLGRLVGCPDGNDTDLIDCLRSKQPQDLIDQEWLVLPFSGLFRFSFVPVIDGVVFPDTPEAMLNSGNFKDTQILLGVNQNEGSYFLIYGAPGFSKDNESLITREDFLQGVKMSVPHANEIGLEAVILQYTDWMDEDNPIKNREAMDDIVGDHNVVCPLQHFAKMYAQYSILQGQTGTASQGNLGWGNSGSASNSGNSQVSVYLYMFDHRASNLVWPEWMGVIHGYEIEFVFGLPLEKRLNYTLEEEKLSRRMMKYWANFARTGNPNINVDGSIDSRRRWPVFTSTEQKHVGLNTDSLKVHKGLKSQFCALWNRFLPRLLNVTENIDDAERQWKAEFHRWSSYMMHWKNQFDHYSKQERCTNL
# T2 sequence (P81908 whole entry): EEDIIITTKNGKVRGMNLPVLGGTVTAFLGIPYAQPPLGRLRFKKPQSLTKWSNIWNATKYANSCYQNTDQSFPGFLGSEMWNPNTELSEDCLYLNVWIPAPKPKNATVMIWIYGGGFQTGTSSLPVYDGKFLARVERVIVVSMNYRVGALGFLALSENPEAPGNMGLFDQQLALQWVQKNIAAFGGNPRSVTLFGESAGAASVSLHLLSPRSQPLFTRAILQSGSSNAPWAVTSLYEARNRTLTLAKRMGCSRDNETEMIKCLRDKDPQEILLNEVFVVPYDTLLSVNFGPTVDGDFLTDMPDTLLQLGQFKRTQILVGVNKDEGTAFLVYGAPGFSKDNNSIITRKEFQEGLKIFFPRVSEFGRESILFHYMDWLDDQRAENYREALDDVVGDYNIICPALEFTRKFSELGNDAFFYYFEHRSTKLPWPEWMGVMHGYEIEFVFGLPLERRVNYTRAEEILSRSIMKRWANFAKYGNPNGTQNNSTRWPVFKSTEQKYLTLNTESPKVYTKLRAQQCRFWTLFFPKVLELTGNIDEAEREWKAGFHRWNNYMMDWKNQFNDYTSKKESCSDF
# T3 sequence (P81908 whole entry): as above
smiles,measurement,setting,value
"O=C1Oc2ccccc2C2CC(c3ccccc3)=NN12 (centres unmarked) [Compound 3a, 2-Phenyl-1,10b-dihydro-5H-pyrazolo[1,5-c][1,3]benzoxazin-5-one]",inhibition at 20 µM,[1]; [6],< 0%
same,IC50,[2]; BuChE from horse serum,9.47 ± 0.23 µM
"S=C1Oc2ccccc2C2CC(c3ccccc3)=NN12 (centres unmarked) [Compound 3b, 2-Phenyl-1,10b-dihydro-5H-pyrazolo[1,5-c][1,3]benzoxazin-5-thione]",inhibition at 20 µM,[1]; [6],< 0%
same,inhibition at 20 µM,[2]; [7],9 ± 3%
"O=C1Oc2ccccc2C2CC(c3ccc(F)cc3)=NN12 (centres unmarked) [Compound 3c, 2-(4-Fluoro)phenyl-1,10b-dihydro-5H-pyrazolo[1,5-c][1,3]benzoxazin-5-one]",inhibition % at 20 µM AChE,[1]; [8],15 ± 3%
same,inhibition % at 20 µM BuChE,[2]; BuChE from horse serum,15 ± 2%
"O=C1Oc2ccc(Cl)cc2C2CC(c3ccc(Cl)cc3)=NN12 (centres unmarked) [Compound 3d, 9-Chloro-2-(4-chloro)phenyl-1,10b-dihydro-5H-pyrazolo[1,5-c][1,3]benzoxazin-5-one]",inhibition % at 20 µM AChE,[1]; [8],39 ± 1%
same,inhibition % at 20 µM BuChE,[2]; BuChE from horse serum,41 ± 6%
"Cc1ccc(C2=NN3C(=O)Oc4ccc(Cl)cc4C3C2)cc1 (centres unmarked) [Compound 3e, 9-Chloro-2-(4-methyl)phenyl-1,10b-dihydro-5H-pyrazolo[1,5-c][1,3]benzoxazin-5-one]",inhibition % at 20 µM AChE,[1]; [8],32 ± 2%
same,inhibition % at 20 µM BuChE,[2]; BuChE from horse serum,32 ± 5%
"Cc1ccc(C2=NN3C(=O)Oc4ccccc4C3C2)cc1 (centres unmarked) [Compound 3f, 2–(4-Methyl)phenyl-1,10b-dihydro-5H-pyrazolo[1,5-c][1,3]benzoxazin-5-one]",inhibition % at 20 µM AChE,[1]; [8],48 ± 3%
same,inhibition % at 20 µM BuChE,[2]; BuChE from horse serum,32 ± 2%
"CC1=NN2C(=O)Oc3c(Cl)cc(Cl)cc3C2C1 (centres unmarked) [Compound 6a, 7,9-Dichloro-2-methyl-1,10b-dihydro-5H-pyrazolo[1,5-c][1,3]benzoxazin-5-one]",viability at 24 h,[3],> 90%
same,inhibition at 20 µM,[1]; [9],39 ± 3%
same,IC50,[2]; BuChE from horse serum,1.06 ± 0.11 µM
same,type of BuChE inhibition,eqBuChE,mixed-type inhibition
same,Ki,eqBuChE,7.46 µM
same,logP at 24 h,[4],1.5
same,viability at 25 µM,[5],> 70%
"CC1=NN2C(=S)Oc3c(Cl)cc(Cl)cc3C2C1 (centres unmarked) [Compound 6b, 7,9-Dichloro-2-methyl-1,10b-dihydro-5H-pyrazolo[1,5-c][1,3]benzoxazin-5-thione]",inhibition at 20 µM,[1]; [9],25 ± 1%
same,inhibition at 20 µM,[2]; [10],< 0%
"CC1=NN2C(=O)Oc3c(Br)cc(Br)cc3C2C1 (centres unmarked) [Compound 6c, 7,9-Dibromo-2-methyl-1,10b-dihydro-5H-pyrazolo[1,5-c][1,3]benzoxazin-5-one]",IC50,[1]; AChE from electric eel,10.7 ± 0.64 µM
same,IC50,[2]; BuChE from horse serum,1.63 ± 0.42 µM
same,logP at 24 h,[4],1.48
"CC1=NN2C(=S)Oc3c(Br)cc(Br)cc3C2C1 (centres unmarked) [Compound 6d, 7,9-Dibromo-2-methyl-1,10b-dihydro-5H-pyrazolo[1,5-c][1,3]benzoxazin-5-thione]",inhibition at 20 µM,[1]; [9],26 ± 3%
same,inhibition at 20 µM,[2]; [10],< 0%
"CC1=NN2C(=O)Oc3ccc(Cl)cc3C2C1 (centres unmarked) [Compound 6e, 9-Chloro-2-methyl-1,10b-dihydro-5H-pyrazolo[1,5-c][1,3]benzoxazin-5-one]",inhibition at 20 µM,[1]; [9],16 ± 1%
same,IC50,[2]; BuChE from horse serum,6.29 ± 0.65 µM
"CC1=NN2C(=S)Oc3ccc(Cl)cc3C2C1 (centres unmarked) [Compound 6f, 9-Chloro-2-methyl-1,10b-dihydro-5H-pyrazolo[1,5-c][1,3]benzoxazin-5-thione]",inhibition at 20 µM,[1]; [9],18 ± 2%
same,inhibition at 20 µM,[2]; [10],< 0%
"CC1=NN2C(=O)Oc3ccc(Br)cc3C2C1 (centres unmarked) [Compound 6g, 9-Bromo-2-methyl-1,10b-dihydro-5H-pyrazolo[1,5-c][1,3]benzoxazin-5-one]",viability at 24 h,[3],> 90%
same,inhibition at 20 µM,[1]; [9],26 ± 1%
same,IC50,[2]; BuChE from horse serum,1.63 ± 0.34 µM
same,type of BuChE inhibition,eqBuChE,mixed-type inhibition
same,Ki,eqBuChE,3.09 µM
same,logP at 24 h,[4],1.63
same,viability at 25 µM,[5],> 70%
"CC1=NN2C(=S)Oc3ccc(Br)cc3C2C1 (centres unmarked) [Compound 6h, 9-Bromo-2-methyl-1,10b-dihydro-5H-pyrazolo[1,5-c][1,3]benzoxazin-5-thione]",inhibition at 20 µM,[1]; [9],27 ± 2%
same,inhibition at 20 µM,[2]; [10],< 0%
"CC1=NN2C(=O)Oc3c(Br)cc(Cl)cc3C2C1 (centres unmarked) [Compound 6i, 7-Bromo-9-chloro-2-methyl-1,10b-dihydro-5H-pyrazolo[1,5-c][1,3]benzoxazin-5-one]",IC50,[1]; AChE from electric eel,13 ± 0.32 µM
same,IC50,[2]; BuChE from horse serum,2.44 ± 0.44 µM
"CC1=NN2C(=S)Oc3c(Br)cc(Cl)cc3C2C1 (centres unmarked) [Compound 6j, 7-Bromo-9-chloro-2-methyl-1,10b-dihydro-5H-pyrazolo[1,5-c][1,3]benzoxazin-5-thione]",inhibition at 20 µM,[1]; [9],14 ± 2%
same,inhibition at 20 µM,[2]; [10],< 0%
"COc1cccc2c1OC(=O)N1N=C(C)CC21 (centres unmarked) [Compound 6k, 2-Methyl-7-methoxy-1,10b-dihydro-5H-pyrazolo[1,5-c][1,3]benzoxazin-5-one]",inhibition at 20 µM,[1]; [9],35 ± 3%
same,inhibition % at 20 µM BuChE,[2]; BuChE from horse serum,14 ± 3%
same,inhibition at 20 µM,[2]; [7],< 20%
"COc1cccc2c1OC(=S)N1N=C(C)CC21 (centres unmarked) [Compound 6l, 2-Methyl-7-methoxy-1,10b-dihydro-5H-pyrazolo[1,5-c][1,3]benzoxazin-5-thione]",inhibition at 20 µM,[1]; [9],30 ± 2%
same,inhibition at 20 µM,[2]; [7],2 ± 2%
"CC1=NN2C(=O)Oc3ccc(C)cc3C2C1 (centres unmarked) [Compound 6m, 2,9-Dimethyl-1,10b-dihydro-5H-pyrazolo[1,5-c][1,3]benzoxazin-5-one]",inhibition at 20 µM,[1]; [6],< 0%
same,inhibition % at 20 µM BuChE,[2]; BuChE from horse serum,14 ± 1%
same,inhibition at 20 µM,[2]; [7],< 20%
"CC1=NN2C(=S)Oc3ccc(C)cc3C2C1 (centres unmarked) [Compound 6n, 2,9-Dimethyl-1,10b-dihydro-5H-pyrazolo[1,5-c][1,3]benzoxazin-5-thione]",inhibition at 20 µM,[1]; [9],15 ± 2%
same,inhibition at 20 µM,[2]; [10],< 0%
"CC1=NN2C(=O)Oc3ccccc3C2C1 (centres unmarked) [Compound 6o, 2-Methyl-1,10b-dihydro-5H-pyrazolo[1,5-c][1,3]benzoxazin-5-one]",inhibition at 20 µM,[1]; read-out: inhibition at 20 µM AChE,< 0%
same,inhibition at 20 µM,"[2]; read-out: inhibition % at 20 µM BuChE, BuChE from horse serum",50.1 ± 4.3%
"CC1=NN2C(=S)Oc3ccccc3C2C1 (centres unmarked) [Compound 6p, 2-Methyl-1,10b-dihydro-5H-pyrazolo[1,5-c][1,3]benzoxazin-5-thione]",inhibition at 20 µM,[1]; [6],< 0%
same,inhibition at 20 µM,[2]; [10],< 0%
"CC1=NN2C(=O)Oc3c(Br)cccc3C2C1 (centres unmarked) [Compound 6q, 7-Bromo-2-methyl-1,10b-dihydro-5H-pyrazolo[1,5-c][1,3]benzoxazin-5-one]",inhibition at 20 µM,[1]; [6],< 0%
same,IC50,[2]; BuChE from horse serum,3.22 ± 1.06 µM
